Here are results for 13 compounds from patent US9655906B2, “Tricyclic indazole compound, method of preparation and pharmaceutical composition containing it” (AZIENDE CHIMICHE RIUNITE ANGELINI FRANCESCO A.C.R.A.F S.p.A., priority 2010, dated 2017).

In one test the target is T1, human 5-HT2A receptor (Homo sapiens, UniProt P28223).
T1 construct: expressed in transfected cells
The test can be described thus: Test A: binding to human recombinant 5-HT2A serotonin receptor, [3H]-ketanserin displacement. The settings on record: membranes from CHO-K1 cells expressing human 5-HT2A; 0.5 nM [3H]-ketanserin; 1 hour at 25° C.; read-out: 5-HT2A (pKi) (converted). On the procedure: In particular, binding to the human 5-HT2A serotonin receptor was performed using, as starting material, a preparation of membranes from stable recombinant CHO-K1 cell line expressing the human 5-HT2A receptor.
The non-specific binding was measured in the presence of 1 μM mianserin. The assay was conducted in Tris-HCl 50 mM buffer (pH 7.4 at 37° C.), with incubation for 1 hour at 25° C. The test compounds were dissolved in DMSO, then diluted in buffer (final DMSO concentration 0.01%) and plated on 96-well plates. The compounds were tested in duplicate in an 8-points concentration response curve (in a Log scale ranging from 10^−12 to 10^−5 M).
After incubation, the membranes were filtered on glass-fibre filters (GF/B) (Unifilter, Packard) treated with 0.5% polyethyleneimine. Then the filters were washed with buffer solution and oven-dried for 30 minutes at 45° C. The scintillation liquid was added to each well, and at least 16 hours later the radioactivity was measured for 1 minute using a TopCount (Packard).
The IC50 values for each compound were calculated using non-linear regression analysis (GraphPad PRISM software) and the inhibition constants Ki were determined using the equation described by Cheng Y. and Prussof W. H. (1973) “Relationship between the inhibition constant (Ki) and the concentration of inhibitor which causes 50 percent inhibition (I50) of an enzyme reaction.” Biochem. Pharmacol. 22: 3099-3108.

A further test concerns serotoninergic system. The test can be described thus: Test C: 5-HTP-induced head twitch test in mice. The settings on record: male CD-1 mice; 5 mg/kg intraperitoneally; 5-HTP 300 mg/kg i.p. 30 min later; counted 24 to 26 minutes after 5-HTP. Format: in vivo, mouse. As for the experimental part:
The interactions of the compounds of formula (I) according to the present invention with the serotoninergic system was tested following the “head twitch” model in the mouse, according to the standard methodology described by Sztanke K., Fidecka S., Kedzierska E., Karczmarzyk Z., Pihlaja K., Matosiuk D. (2005) in “Antionociceptive activity of new imidazole carbonyl derivatives. Part 4. Synthesis and pharmacological activity of 8-aryl-3,4-dioxo-2H,8H-6,7-dihydrimidazo[2,1c][1,2,4]triazine.” Eur. J. Med. Chem. 40: 127-134, and in Corne S. J., Pickering R. W., Warner B. T. (1963) “A method for assessing the effects of drugs on the central actions of 5-hydroxytryptamine.” Br. J. Pharmacol. Chemother. 20: 106-120.
The “head twitches” are a characteristic shaking of the head induced in the animals by the increase in central levels of serotonin.
Male CD-1 mice weighing 25-30 g were used for the “head twitch” test. Molecules were suspended in a 0.5% methylcellulose aqueous solution (MTC) and the animals were treated intraperitoneally with the test compounds at the dose of 5 mg/kg (10 ml/kg body weight). The control animals received the vehicle alone (MTC) by the same route. Head twitches, considered as a specific behavioural model for the activation of serotoninergic neurons, were induced by an intraperitoneal administration of 5-hydroxytryptophan (5-HTP), a precursor of serotonin (5-HT), dissolved in a 0.5% MTC solution and given at 300 mg/kg 30 min following drug administration.
The number of head twitches, which constitutes the parameter for assessment of the serotoninergic response, was measured in the interval from 24 to 26 minutes after administration of 5-HTP.

The target in a further test is T2, human 5-HT2C receptor (Homo sapiens, UniProt P28335).
T2 construct: expressed in transfected cells
T2 sequence (P28335 33-458): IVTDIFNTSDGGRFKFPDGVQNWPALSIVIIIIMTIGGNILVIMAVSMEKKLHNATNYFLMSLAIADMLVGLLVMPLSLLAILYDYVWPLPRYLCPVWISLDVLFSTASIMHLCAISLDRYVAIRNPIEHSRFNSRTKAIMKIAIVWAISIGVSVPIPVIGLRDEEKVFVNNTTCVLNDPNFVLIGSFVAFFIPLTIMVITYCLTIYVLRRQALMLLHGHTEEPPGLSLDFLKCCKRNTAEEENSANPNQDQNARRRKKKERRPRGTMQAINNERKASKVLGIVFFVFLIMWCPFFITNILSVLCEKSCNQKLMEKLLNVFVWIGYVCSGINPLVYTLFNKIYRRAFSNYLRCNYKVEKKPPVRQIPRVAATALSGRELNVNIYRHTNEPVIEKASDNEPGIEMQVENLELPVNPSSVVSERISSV
The test can be described thus: Test B: binding to human 5-HT2C serotonin receptor, [3H]-mesulergine displacement. The settings on record: membranes from CHO-K1 cells expressing human 5-HT2C; 1 nM [3H]-mesulergine; 1 hour at 25° C.; read-out: (h)5-HT2c (pKi) (converted). On the procedure:
69: 1449-1458. In particular, binding to the human serotonin 5-HT2C receptor was performed using, as starting material, a preparation of membranes from stable recombinant CHO-K1 cell line expressing the human 5-HT2C receptor. […] The non-specific binding was measured in the presence of 1 μM mianserin. The assay was conducted in Tris-HCl 50 mM buffer (pH 7.4 at 37° C.), 0.1% Ascorbic Acid, 10 μM Pargyline, with incubation for 1 hour at 25° C. The test compounds were dissolved in DMSO, then diluted in buffer (final DMSO concentration 0.01%) and plated on 96-well plates The compounds were tested in duplicate in an 8-points concentration response curve (in a Log scale ranging from 10^−12 to 10^−5 M). SB 242084 was used as reference compound. […] Then the filters were washed with buffer solution and oven-dried for 30 minutes at 45° C. The scintillation liquid was added to each well, and at least 16 hours later the radioactivity was measured for 1 minute using a TopCount (Packard). The IC50 values for each compound were calculated using non-linear regression analysis (GraphPad PRISM software) and the inhibition constants Ki were determined using the equation described by Cheng Y. and Prussof W. H. […] Pharmacol. 22: 3099-3108.

Structures can show the parent of a compound that is named as a salt.

T1 sequence (P28223 whole entry): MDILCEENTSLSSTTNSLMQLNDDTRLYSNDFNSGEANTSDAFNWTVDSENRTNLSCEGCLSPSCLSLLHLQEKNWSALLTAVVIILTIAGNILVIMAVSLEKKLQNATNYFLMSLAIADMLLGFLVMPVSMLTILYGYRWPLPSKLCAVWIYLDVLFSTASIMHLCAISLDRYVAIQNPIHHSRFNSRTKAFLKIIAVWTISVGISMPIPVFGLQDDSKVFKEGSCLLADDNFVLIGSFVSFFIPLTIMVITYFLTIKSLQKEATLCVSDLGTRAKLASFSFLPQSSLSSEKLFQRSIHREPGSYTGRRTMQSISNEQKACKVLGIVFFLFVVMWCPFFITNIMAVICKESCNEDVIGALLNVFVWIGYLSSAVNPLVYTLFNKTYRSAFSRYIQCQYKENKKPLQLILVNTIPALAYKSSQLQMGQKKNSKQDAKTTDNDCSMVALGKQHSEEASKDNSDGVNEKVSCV

On to `O=C1c2c3ccccc3nn2CCN1CC1CCCN(CCc2ccc(F)cc2)C1` (stereo not shown) [Compound 2, 2-({1-[2-(4-fluorophenyl)ethyl]piperidin-3-yl}methyl)-3,4-dihydropyrazino[1,2-b]indazol-1(2H)-one], for which the Ki at human 5-HT2A receptor is 1150 nM.

For `O=C1c2c3ccccc3nn2CCN1CC1CCN(CCc2ccccc2F)CC1` [Compound 8, 2-({1-[2-(2-fluorophenyl)ethyl]piperidin-4-yl}methyl)-3,4-dihydropyrazino[1,2-b]indazol-1(2H)-one], the Ki on human 5-HT2A receptor was 1.82 nM. Besides, the “% INHIBITION (number of head twitches vs vehicle treated group)” value (shortened to “% INHIBITION”) in the test on serotoninergic system is recorded as 70%.

As for `Cc1cc2c(cc1Cl)N(C(=O)Nc1ccc(Oc3cccnc3C)nc1)CC2` [SB 242084, reference compound], the Ki at human 5-HT2C receptor is 0.468 nM.

As to `O=C1c2c3c(nn2CCN1CC1CCN(CCc2ccc(F)cc2)CC1)CCCC3` [Compound 17, 2-({1-[2-(4-fluorophenyl)ethyl]piperidin-4-yl}methyl)-3,4,7,8,9,10-esahydropyrazino[1,2-b]indazol-1(2H)-one hydrochloride], the Ki on human 5-HT2A receptor is 29.5 nM; on human 5-HT2C receptor it was 7410 nM. Further, the “% INHIBITION” value in the test with serotoninergic system was 32%.

`O=C1c2c3ccccc3nn2CCCN1CC1CCCN(CCc2ccccc2F)C1` (stereo not shown) [Compound 13, 2-({1-[2-(2-fluorophenyl)ethyl]piperidin-3-yl}methyl)-2,3,4,5-tetrahydro-1H-[1,4]diazepino[1,2-b]indazol-1-one dihydrochloride]: the Ki on human 5-HT2A receptor was 257 nM.

Consider `O=C1c2c3ccccc3nn2CCN1CC1CCCN(CCc2ccccc2F)C1` (stereo not shown) [Compound 5, 2-({1-[2-(2-fluorophenyl)ethyl]piperidin-3-yl}methyl)-3,4-dihydropyrazino[1,2-b]indazol-1(2H)-one hydrochloride], for which the Ki on human 5-HT2A receptor was 692 nM.

Regarding `Cl.O=C1c2c3ccccc3nn2CCCN1CC1CCN(CCc2ccc(F)cc2)CC1` [Compound 16, 2-({1-[2-(4-fluorophenyl)ethyl]piperidin-4-yl}methyl)-2,3,4,5-tetrahydro-1H-[1,4]diazepino[1,2-b]indazol-1-one hydrochloride], the Ki is 7.24 nM at human 5-HT2A receptor and greater than 10000 nM at human 5-HT2C receptor. Also, the “% INHIBITION” value with serotoninergic system turned out to be 56%.

Turning to `O=C1c2c3ccccc3nn2CCCN1CCCN1CCC(c2ccccc2)CC1` [Compound 31, 2-[3-(4-phenylpiperidin-1-yl)propyl]-2,3,4,5-tetrahydro-1H-[1,4]diazepino[1,2-b]indazol-1-one hydrochloride], the values for the Ki on human 5-HT2A receptor and at human 5-HT2C receptor were 45.7 nM and greater than 10000 nM, respectively.

Turning to `O=C1c2c3ccccc3nn2CCCN1CC1CCCN(CCc2ccc(F)cc2)C1` (stereo not shown) [Compound 10, 2-({1-[2-(4-fluorophenyl)ethyl]piperidin-3-yl}methyl)-2,3,4,5-tetrahydro-1H-[1,4]diazepino[1,2-b]indazol-1-one dihydrochloride], the Ki on human 5-HT2A receptor is 275 nM.

Regarding `Cl.O=C1c2c3ccccc3nn2CCN1CC1CCN(CCc2ccc(F)cc2)CC1` [Compound 1, 2-({1-[2-(4-fluorophenyl)ethyl]piperidin-4-yl}methyl)-3,4-dihydropyrazino[1,2-b]indazol-1(2H)-one hydrochloride], the Ki was 19.5 nM on human 5-HT2A receptor and 1700 nM at human 5-HT2C receptor. In the test on serotoninergic system, the “% INHIBITION” value was 50%.

Consider `O=C1c2c3ccccc3nn2CCN1CC1CCN(CCc2ccccc2)CC1` [Compound 20, 2-[(1-phenethylpiperidin-4-yl)methyl]-3,4-dihydropyrazino[1,2-b]indazol-1(2H)-one hydrochloride], for which the Ki at human 5-HT2A receptor was 16.6 nM.

For the compound `O=C1c2c3ccccc3nn2CCN1CCCN1CCC(c2ccccc2)CC1` [Compound 28, 2-[3-(4-phenylpiperidin-1-yl)propyl]-3,4-dihydropyrazino[1,2-b]indazol-1(2H)-one hydrochloride], the figures for the Ki on human 5-HT2A receptor and on human 5-HT2C receptor were 74.1 nM and greater than 10000 nM, respectively.

Take `O=C1c2c3ccccc3nn2CCCN1CC1CCN(CCc2ccccc2)CC1` [Compound 22, 2-[(1-phenethylpiperidin-4-yl)methyl]-2,3,4,5-tetrahydro-1H-[1,4]diazepino[1,2-b]indazol-1-one]: the Ki on human 5-HT2A receptor was 20.9 nM.
